Reference: patent US9260435B2, “Substituted imidazopyrazines as Akt kinase inhibitors” (Bayer Intellectual Property GmbH, priority 2012, dated 2016)

What was measured:
[1] = target: His-tagged human recombinant kinase full-length Akt2 (Homo sapiens (Human), UniProt P31751); test: Akt2 kinase assay (TR-FRET); format: biochemical; settings: 10 μM ATP, read-out: Akt2, median IC50
Text: Biological Assay 2.0: Akt2 Kinase Assay
Akt2 inhibitory activity of compounds of the present invention was quantified employing the Akt2 TR-FRET assay as described in the following paragraphs.
His-tagged human recombinant kinase full-length Akt2 expressed in insect cells and activated by PDK1 was purchased from Invitrogen (part number PV 3975). As substrate for the kinase reaction the biotinylated peptide biotin-Ahx-KKLNRTLSFAEPG (C-terminus in amide form) was used which can be purchased e.g. from the company Biosynthan GmbH (Berlin-Buch, Germany).
For the assay 50 nl of a 100 fold concentrated solution of the test compound in DMSO was pipetted into a black low volume 384 well microtiter plate (Greiner Bio-One, Frickenhausen, Germany), 2 μl of a solution of Akt2 in assay buffer [50 mM TRIS/HCl pH 7.5, 5 mM MgCl2, 1 mM dithiothreitol, 0.02% (v/v) Triton X-100 (Sigma)] were added and the mixture was incubated for 15 min at 22° C. to allow prebinding of the test compounds to the enzyme before the start of the kinase reaction. Then the kinase reaction was started by the addition of 3 μl of a solution of adenosine-tri-phosphate (ATP, 16.7 μM=>final conc. in the 5 μl assay volume is 10 μM) and substrate (1.67 μM=>final conc. in the 5 μl assay volume is 1 μM) in assay buffer and the resulting mixture was incubated for a reaction time of 60 min at 22° C. The concentration of Akt2 in the assay was adjusted depending of the activity of the enzyme lot and was chosen appropriate to have the assay in the linear range, typical enzyme concentrations were in the range of about 0.2 ng/μl (final conc. in the 5 μl assay volume).
The reaction was stopped by the addition of 5 μl of a solution of HTRF detection reagents (200 nM streptavidine-XL665 [Cisbio] and 1.5 nM anti-phosho-Serine antibody [Millipore, cat. #35-001] and 0.75 nM LANCE Eu-W 1024 labeled anti-mouse IgG antibody [Perkin Elmer]) in an aqueous EDTA-solution (100 mM EDTA, 0.1% (w/v) bovine serum albumin in 50 mM HEPES/NaOH pH 7.5).
The resulting mixture was incubated 1 h at 22° C. to allow the binding of the biotinylated phosphorylated peptide to the streptavidine-XL665 and the antibodies. Subsequently the amount of phosphorylated substrate was evaluated by measurement of the resonance energy transfer from the anti-mouse-IgG-Eu-Chelate to the streptavidine-XL665. Therefore, the fluorescence emissions at 620 nm and 665 nm after excitation at 350 nm was measured in a TR-FRET reader, e.g. a Rubystar (BMG Labtechnologies, Offenburg, Germany) or a Viewlux (Perkin-Elmer). The ratio of the emissions at 665 nm and at […] was taken as the measure for the amount of phosphorylated substrate. The data were normalised (enzyme reaction without inhibitor=0% inhibition, all other assay components but no enzyme=100% inhibition).

[2] = test system: p-4E-BP1 at T70; test: Cellular p-4E-BP1-T70 assay in KPL-4 cells; format: cell-based; settings: Homo sapiens, KPL4; KPL-4 breast tumour cell line, 2 hours treatment; read-out: P4EBP1-T70 median IC50
Experimental: The molecular mechanism of action was investigated in a set of experiments to assess the inhibition of the PI3K-AKT-mTOR pathway in responsive cell lines such as KPL-4 breast tumour cell line (PIK3CA^H1047R, HER2^O/E and hormone independent). The phospho-substrates of PI3K-AKT-mTOR axis were used as the readouts to reflect pathway inhibition. Cells were seeded at 60-80% confluency per well in 96-well cell culture plates. After overnight incubation at 37° C. 5% CO2, cells were treated with compounds and vehicle at 37° C. for 2 hours. Thereafter, cells were lysed in 150 μl lysis buffer and the levels of phospho-AKT at T308 and S473 and p-4E-BP1 at T70 sites were determined with the corresponding AlphaScreen® SureFire® assay kits (Perkin Elmer: 4E-BP1 Assay Kit Cat # TRG4E2S10K; Akt 1/2/3 p-Ser 473 #TGRA4S500 and Akt 1/2/3 p-Thr 308 #TGRA3S500 as well as IgG detection Kit #6760617M) as described in the manuals. All measurements where at least done in duplicates and confirmed by independent repetition. Alternatively pAKT-S473 was measured using the “Akt Duplex” of the MULTI-SPOT® Assay System (Fa. Meso Scale Discovery, Cat# N41100B-1) following manufacturers instructions. Each assay used 20 μg of protein extract and measured total AKT and p-AKT content simultaneously in one well. All measurements where at least done in duplicates and confirmed by independent repetition. Values for P-AKT are expressed as percentage of P-AKT level compared to total-AKT content of the extracts.

[3] = test system: MCF-7 breast tumour cell line; test: Tumor cell proliferation assay (CellTiter-Glo, 72 h), MCF-7; format: cell-based; settings: Homo sapiens, MCF7, 72 h drug exposure; for inhibition at 1.67 µM: read-out: MCF-7 median inhibition at 1.67 μM (%)
Experimental: Biological Assay 4.0: Tumor Cell Proliferation Assays
Compounds were tested in a cell-based assay that measures the capacity of the compounds to inhibit tumour cell proliferation following a 72 h drug exposure. Cell viability is determined using CellTiter-Glow® (CTG, Promega, cat# G7571/2/3). The CellTiter-Glo® Luminescent Cell Viability Assay is a homogeneous method to determine the number of viable cells in culture. Detection is based on using the luciferase reaction to measure the amount of ATP from viable cells. The amount of ATP in cells correlates with cell viability. Within minutes after a loss of membrane integrity, cells lose the ability to synthesize ATP, and endogenous ATPases destroy any remaining ATP; thus the levels of ATP fall precipitously.
Cells were plated at 3000-5000 cells/well (depending on the cell lines) in 90 μL growth medium on MTPs (Corning; #3603, black plate, clear flat bottom). For each cell line assayed, cells were plated onto a separate plate for determination of […] at t=0 hour and t=72 hour time points. Following overnight incubation at 37° C., chemiluminescence values for the t=0 samples were determined after adding 10 μl medium and 100 μl CTG solution according to manufacture protocol. Plates for the t=72 hour time points were treated with compounds diluted into growth medium at ten times final concentration added in 10 μL to the cell culture plate. Cells were then incubated for 72 hours at 37° C. Chemiluminescence values for the t=72 hour samples were determined. […] Experiments were controlled using a reference compound as standard.
Preferred compounds of the present invention show in this assay an inhibition of cell growth of cell lines such as the KPL-4 breast cancer cell line and the MCF-7 breast tumour cell line ([…], hormone dependent) with a median IC50 of <10 μM, more preferably, median IC50≦1 μM.

His-tagged human recombinant kinase full-length Akt2, sequence (P31751 whole entry): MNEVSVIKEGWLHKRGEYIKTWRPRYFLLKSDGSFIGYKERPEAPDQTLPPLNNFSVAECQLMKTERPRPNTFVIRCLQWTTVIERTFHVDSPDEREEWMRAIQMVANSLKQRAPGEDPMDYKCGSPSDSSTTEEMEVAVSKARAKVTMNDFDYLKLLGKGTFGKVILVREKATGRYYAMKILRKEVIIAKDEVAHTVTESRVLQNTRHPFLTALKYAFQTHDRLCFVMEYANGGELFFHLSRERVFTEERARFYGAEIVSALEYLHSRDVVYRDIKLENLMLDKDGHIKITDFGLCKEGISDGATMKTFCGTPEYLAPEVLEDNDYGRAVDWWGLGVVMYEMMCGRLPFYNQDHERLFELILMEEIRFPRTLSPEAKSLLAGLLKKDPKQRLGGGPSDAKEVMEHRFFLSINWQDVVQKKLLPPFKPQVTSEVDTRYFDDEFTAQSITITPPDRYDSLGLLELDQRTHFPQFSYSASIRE

Row | SMILES | IC50 [1] [nM] | IC50 [2] [nM] | inhibition at 1.67 µM [3] [%] | IC50 [3] [nM]
1 | Cc1cn2c(-c3ccccc3)c(-c3ccc(C4(N)CCC4)cc3)nc2c(C)n1 [Example 2, 1-[4-(6,8-Dimethyl-3-phenylimidazo[1,2-a]pyrazin-2-yl)phenyl]-cyclobutanamine] | 220 | 1100 | 70.8 | 720
2 | COc1nc(Br)cn2c(-c3ccccc3)c(-c3ccc(C4(N)CCC4)cc3)nc12 [Example 3, 1-[4-(6-Bromo-8-methoxy-3-phenylimidazo[1,2-a]pyrazin-2-yl)phenyl]cyclobutanamine] | 33 | 1400 | 46.2 | 1700
3 | CCc1cn2c(-c3ccccc3)c(-c3ccc(C4(N)CCC4)cc3)nc2c(OC)n1 [Example 4, 1-[4-(6-Ethyl-8-methoxy-3-phenylimidazo[1,2-a]pyrazin-2-yl)phenyl]cyclobutanamine] | 34 | 380 | 72.4 | 850
4 | NC(=O)c1cn2c(-c3ccccc3)c(-c3ccc(C4(N)CCC4)cc3)nc2cn1 [Example 6, 2-[4-(1-Aminocyclobutyl)phenyl]-3-phenylimidazo[1,2-a]pyrazine-6-carboxamide] | 97 | 18 | 57.3 | 1100
5 | COC(=O)c1cn2c(-c3ccccc3)c(-c3ccc(C4(N)CCC4)cc3)nc2c(OC)n1 [Example 7, Methyl 2-[4-(1-aminocyclobutyl)phenyl]-8-methoxy-3-phenylimidazo[1,2-a]pyrazine-6-carboxylate] | 86 | 43 | 72.3 | 420
6 | COc1nc(C(N)=O)cn2c(-c3ccccc3)c(-c3ccc(C4(N)CCC4)cc3)nc12 [Example 8, 2-[4-(1-Aminocyclobutyl)phenyl]-8-methoxy-3-phenylimidazo[1,2-a]pyrazine-6-carboxamide] | 14 | 18 | 73.1 | 270
